Measurements reported in patent US11390617B2, “Methods of treating non-Hodgkin lymphoma using 2-(2,6-dioxopiperidin-3-yl)-4-((2-fluoro-4-((3-morpholinoazetidin-1-yl)methyl)benzyl)amino)isoindoline-1,3-dione” (Celgene Corporation, priority 2019, dated 2022).

How the values were obtained:
[1] = system: lymphoma cell lines WSU-DLCL2, SU-DHL6, and RL; assay: NK mediated cell killing (ADCC) with rituximab; format: cell-based, human; conditions: NK cells pre-treated with Compound 1 100 nM 18 hours; rituximab 7.5 ug/mL, 4 hours
Description: Commercial purified NK cells isolated from human peripheral blood mononuclear cell (PBMC) were seeded at a concentration of 10^6 cells/mL, cultured in media supplemented with 10 ng/mLrhIL-2 and treated with Compound 1 (100 nM) for 18 hours at 37° C. prior to cytotoxicity assays. Target lymphoma cell lines were added to the pre-treated effector NK cells at a 1:10 (target:effector) cell ratio for WSU-DLCL2 and RL lines or 1:3 for SU-DHL6. At the time of co-culture, rituximab or isotype control at 7.5 ug/mL were added to the media and cells were incubated for 4 hours at 37° C. Then, cells were collected, stained with CD20, Annexin V and 7AAD and analyzed by FACS.

[2] = system: WSU-DLCL2 DLBCL xenograft tumors; assay: WSU-DLCL2 (DLBCL) xenograft model; format: in vivo, female SCID mice; conditions: 5 days on 2 days off for 3 weeks, single agent
Description: (§1) Female 6- to 8-weeks-old CB17 SCID mice were obtained from Charles River Laboratories. Mice were housed in a barrier facility in micro-isolator cages at 10 animals per cage. Mice were fed with Harlan-Teklad LM-485 Mouse/Rat Sterilizable Diet and autoclaved water ad libitum and maintained on a 12 hours light-dark cycle. Animals were acclimatized to the animal housing facility for a period of 7 days before the beginning of the experiment. All animal studies were performed under protocols approved by Institutional Animal Care and Use Committees.
Suspensions of Compound 1 were pared in aqueous 0.5% Methyl Cellulose, 0.25% Tween 80 and 50 mM Citrate pH 3. The formulations were homogenized using a Teflon pestle and mortar (Potter-Elvehjem tissue grinder). For multiday studies, the compound was freshly formulated every day. Compound 1 and vehicle were administered by oral gavage. Rituximab was diluted in 0.9% saline and administered intraperitoneally.
Tumor cells were injected subcutaneously in the flank region above the right hind legs of female CB17 SCID mice. When the tumor volumes reach to approximately 200 mm^3, mice bearing tumors of 150-300 mm^3 were randomly assigned to receive oral doses of vehicle, Compound 1, rituximab or combination of Compound 1 (5 days on and 2 days off for 3 weeks) and rituximab (twice a week) for the duration of the study. Tumor volumes were determined before the initiation of treatment and were considered as the starting volumes. Tumors were measured twice a week for the duration of the study. The long and short axes of each tumor were measured using a digital caliper in millimeters. The tumor volumes were calculated using the formula: width^2×length/2. The tumor volumes were expressed in cubic millimeters (mm^3).
Xenograft data are expressed as mean±SEM. Statistical analyses were performed using GraphPad Prism. […]
Xenograft study was conducted with female SCID mice bearing WSU-DLCL2 DLBCL xenograft tumors. […] Tumors were measured twice a week using calipers and tumor volumes were calculated using the formula of W^2×L/2. […]

[3] = system: RL follicular lymphoma xenograft tumors; assay: RL (follicular lymphoma) xenograft model, alone and in combination with rituximab; format: in vivo, female SCID mice; conditions: Compound 1 0.3 mg/kg oral, 5 days on 2 days off for 3 weeks, single agent
Description: as §1
Suspensions of Compound 1 were pared in aqueous 0.5% Methyl Cellulose, 0.25% Tween 80 and 50 mM Citrate pH 3. […]
Tumor cells were injected subcutaneously in the flank region above the right hind legs of female CB17 SCID mice. […] Tumor volumes were determined before the initiation of treatment and were considered as the starting volumes. Tumors were measured twice a week for the duration of the study. The long and short axes of each tumor were measured using a digital caliper in millimeters. The tumor volumes were calculated using the formula: width^2×length/2. […]
Xenograft data are expressed as mean±SEM. […]
Xenograft study was conducted with female SCID mice bearing RL follicular lymphoma xenograft tumors. […] Tumors were measured twice a week using calipers and tumor volumes were calculated using the formula of W^2×L/2. […]

`O=C1CC[C@H](N2C(=O)c3cccc(NCc4ccc(CN5CC(N6CCOCC6)C5)cc4F)c3C2=O)C(=O)N1` [Compound 1, (S)-2-(2,6-dioxopiperidin-3-yl)-4-((2-fluoro-4-((3-morpholinoazetidin-1-yl)methyl)benzyl)amino)isoindoline-1,3-dione] was tested, and the “rituximab cytotoxicity of lymphoma cell lines (NK mediated cell killing, ADCC)” value [1] was “able to increase rituximab cytotoxicity of lymphoma cell lines”, the tumor volume reduction ([2]; Compound 1 1 mg/kg oral) was 74% and the tumor volume reduction ([2]; Compound 1 3 mg/kg oral) was 86%. The tumor volume reduction [3] was 36%.
